{"source": "patent US20250353842A1", "about": "“BICYCLIC AMINE CDK12 INHIBITORS” (Incyte Corporation, priority 2022, published 2025)", "data": [{"biological_target": "CDK12 complexed with Cyclin K (Homo sapiens (Human), UniProt Q9NYV4)", "sequence (Q9NYV4 whole entry)": "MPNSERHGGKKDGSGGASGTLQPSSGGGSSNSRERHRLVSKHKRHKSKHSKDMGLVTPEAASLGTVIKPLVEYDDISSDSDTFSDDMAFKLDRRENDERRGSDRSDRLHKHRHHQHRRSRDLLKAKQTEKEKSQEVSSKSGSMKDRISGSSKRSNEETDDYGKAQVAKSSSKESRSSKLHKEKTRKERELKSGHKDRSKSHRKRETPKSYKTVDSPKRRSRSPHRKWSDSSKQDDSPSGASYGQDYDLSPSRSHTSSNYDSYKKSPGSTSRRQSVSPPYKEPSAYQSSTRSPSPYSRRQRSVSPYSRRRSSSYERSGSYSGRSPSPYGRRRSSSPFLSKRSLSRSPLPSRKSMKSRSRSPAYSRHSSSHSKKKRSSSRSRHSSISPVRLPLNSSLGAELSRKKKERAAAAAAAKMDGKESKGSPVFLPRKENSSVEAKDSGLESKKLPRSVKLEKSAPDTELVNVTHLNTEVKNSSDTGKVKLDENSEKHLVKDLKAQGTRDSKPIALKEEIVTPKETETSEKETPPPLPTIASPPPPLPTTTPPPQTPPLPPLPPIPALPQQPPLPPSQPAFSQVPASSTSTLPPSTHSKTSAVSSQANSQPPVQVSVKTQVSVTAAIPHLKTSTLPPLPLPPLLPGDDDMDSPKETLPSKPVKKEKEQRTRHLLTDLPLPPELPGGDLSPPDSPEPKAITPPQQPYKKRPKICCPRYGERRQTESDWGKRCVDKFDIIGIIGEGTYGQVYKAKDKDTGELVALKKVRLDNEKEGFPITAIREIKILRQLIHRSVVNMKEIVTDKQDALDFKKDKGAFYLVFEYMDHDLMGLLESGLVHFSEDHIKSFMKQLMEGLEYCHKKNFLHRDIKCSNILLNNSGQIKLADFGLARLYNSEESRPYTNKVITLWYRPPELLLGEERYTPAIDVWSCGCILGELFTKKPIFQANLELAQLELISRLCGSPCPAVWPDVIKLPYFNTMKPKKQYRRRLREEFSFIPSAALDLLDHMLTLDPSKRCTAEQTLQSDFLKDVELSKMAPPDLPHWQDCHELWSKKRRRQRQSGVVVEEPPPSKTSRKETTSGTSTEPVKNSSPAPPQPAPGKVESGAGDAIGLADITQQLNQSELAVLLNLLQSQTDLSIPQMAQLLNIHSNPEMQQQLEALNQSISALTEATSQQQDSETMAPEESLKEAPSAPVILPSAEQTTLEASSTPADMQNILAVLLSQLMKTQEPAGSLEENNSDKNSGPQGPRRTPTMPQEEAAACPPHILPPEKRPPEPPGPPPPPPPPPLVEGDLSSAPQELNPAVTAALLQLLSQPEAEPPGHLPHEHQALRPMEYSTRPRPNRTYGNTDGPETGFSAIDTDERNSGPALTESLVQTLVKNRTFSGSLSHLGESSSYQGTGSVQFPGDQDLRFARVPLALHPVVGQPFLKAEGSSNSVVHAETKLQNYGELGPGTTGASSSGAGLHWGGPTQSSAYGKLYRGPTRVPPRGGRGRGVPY", "sequence (O75909 whole entry partner)": "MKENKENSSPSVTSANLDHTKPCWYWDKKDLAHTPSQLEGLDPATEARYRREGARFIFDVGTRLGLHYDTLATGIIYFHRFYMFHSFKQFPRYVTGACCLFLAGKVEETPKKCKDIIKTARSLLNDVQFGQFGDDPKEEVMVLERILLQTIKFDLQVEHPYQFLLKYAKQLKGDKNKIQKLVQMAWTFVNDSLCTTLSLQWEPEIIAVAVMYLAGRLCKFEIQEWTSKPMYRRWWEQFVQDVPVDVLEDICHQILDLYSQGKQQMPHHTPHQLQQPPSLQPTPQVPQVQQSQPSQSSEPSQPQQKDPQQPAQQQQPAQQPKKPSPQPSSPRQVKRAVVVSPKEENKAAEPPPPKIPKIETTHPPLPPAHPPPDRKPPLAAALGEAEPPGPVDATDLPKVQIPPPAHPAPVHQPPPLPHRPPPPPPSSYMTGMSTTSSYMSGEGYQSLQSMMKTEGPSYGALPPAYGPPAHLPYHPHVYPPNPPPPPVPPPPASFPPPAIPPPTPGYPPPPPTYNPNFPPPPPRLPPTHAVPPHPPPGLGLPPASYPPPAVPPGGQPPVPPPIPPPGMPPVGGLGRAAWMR", "assay": "CDK enzymatic assay (HTRF, LANCE Ultra kinase assay)", "format": "biochemical", "settings": "60 minutes pre-incubation, 1 mM ATP", "description": "The following activity of the CDK enzymes in complex with their respective cyclins we assayed: CDK1 complexed with Cyclin B1; CDK2 complexed with Cyclin E1; CDK4 complexed with Cyclin D1; CDK6 complexed with Cyclin D1; CDK6 complexed with Cyclin D3; CDK9 complexed with Cyclin T1; CDK7 complexed with Cyclin H/MAT1; CDK2 complexed with Cyclin A2; CDK5 complexed with p35; CDK12 complexed with Cyclin K; CDK13 complexed with Cyclin K. These in vitro enzyme activity are assayed using homogeneous time-resolved energy transfer (HTRF), which measures phosphorylation of a peptide substrate. The LANCE® Ultra kinase assay (PerkinElmer) uses a ULight™-labeled EIF4E-binding protein 1 (THR37/46) peptide (DYSTTPGGTLFSTTPGTRI) (SEQ ID NO: 1) substrate and a Europium-labeled anti-phospho-4E-BP1 antibody (CDK2, CDK1, CDK4, CDK6, CDK9, CDK12, CDK13) or ULight™-labeled Myelin Basic Protein peptide (VTPRTPPP) (SEQ ID NO: 2) substrate and a Europium-labeled anti-phospho-MBP antibody (CDK7). Each CDK enzyme activity assays utilized human CDK co-expressed as N-terminal GST-tagged protein with its full length cyclin partner using a baculovirus expression system.\nEnzyme was pre-incubated with compounds for 30 minutes (CDK1,2,4,6,9) or 60 minutes (CDK7, CDK12, CDK13) prior to addition of ATP and Ulight-peptide (1 mM and 50 nM final, respectively), in assay buffer containing 50 mM HEPES pH 7.5, 1 mM EGTA, 10 mM MgCl2, 2 mM DTT, 0.05 mg/mL BSA, and 0.01% Tween 20.\nThe reaction was then incubated for 60-90 minutes at room temperature. The reactions were stopped by the addition of EDTA and Europium labeled antibody, for a final concentration of 15 mM and 1.0-1.5 nM, respectively. HTRF signals were read after 15-120 minutes. A ratio of fluorescence transferred to the labeled substrate (665 nm) relative to fluorescence of the Europium donor (620 nm) represents the extent of phosphorylation. Ratios for treated wells were normalized to DMSO only (100% activity) and no enzyme (0% activity) controls. Normalized data was analyzed using a three or four parameter dose response curve to determine IC50 for each compound and are shown in Table A. Control reference inhibitors were included on each plate.", "units": {"IC50": "nM"}, "values": [{"molecule": "N#Cc1cnc2c(c1)ncn2[C@H]1CCC[C@@H](Nc2ncc(C#N)c(-c3cnn(CC(F)F)c3)n2)C1", "note": "[9/9A, 3-((1S,3R)-3-((5-Cyano-4-(1-(2,2-difluoroethyl)-1H-pyrazol-4-yl)pyrimidin-2-yl)amino)cyclohexyl)-3H-imidazo[4,5-b]pyridine-6-carbonitrile]", "IC50": "< 50"}, {"molecule": "N#Cc1cnc(N[C@@H]2CCC[C@H](n3cnc4cccc(C#N)c43)C2)nc1-c1cnn(CC(F)F)c1", "note": "[13/13A, 1-((1S,3R)-3-((5-Cyano-4-(1-(2,2-difluoroethyl)-1H-pyrazol-4-yl)pyrimidin-2-yl)amino)cyclohexyl)-1H-benzo[d]imidazole-7-carbonitrile]", "IC50": "< 50"}, {"molecule": "Cc1c(-c2nc(N[C@@H]3CCC[C@H](n4cnc5cc(C#N)cnc54)C3)ncc2C#N)nnn1C", "note": "[28/28A, 3-((1S,3R)-3-((5-Cyano-4-(1,5-dimethyl-1H-1,2,3-triazol-4-yl)pyrimidin-2-yl)amino)cyclohexyl)-3H-imidazo[4,5-b]pyridine-6-carbonitrile]", "IC50": "< 50"}, {"molecule": "N#Cc1cnc2c(c1)ncn2[C@H]1CCC[C@@H](Nc2ncc(C(F)(F)F)c(-c3cnn(CC(F)F)c3)n2)C1", "note": "[Example 1, 3-((1S,3R)-3-((4-(1-(2,2-Difluoroethyl)-1H-pyrazol-4-yl)-5-(trifluoromethyl)pyrimidin-2-yl)amino)cyclohexyl)-3H-imidazo[4,5-b]pyridine-6-carbonitrile]", "IC50": "< 50"}, {"molecule": "N#Cc1cnc2c(c1)ncn2[C@H]1CC[C@@H](Nc2ncc(C(F)(F)F)c(-c3cnn(CC(F)F)c3)n2)C1", "note": "[Example 2, 3-((1S,3R)-3-((4-(1-(2,2-Difluoroethyl)-1H-pyrazol-4-yl)-5-(trifluoromethyl)pyrimidin-2-yl)amino)cyclopentyl)-3H-imidazo[4,5-b]pyridine-6-carbonitrile]", "IC50": "> 500"}, {"molecule": "N#Cc1cnc(N[C@@H]2CCC[C@H](n3cnc4ccccc43)C2)nc1-c1cnn(CC(F)F)c1", "note": "[Example 3, 2-(((1R,3S)-3-(1H-Benzo[d]imidazol-1-yl)cyclohexyl)amino)-4-(1-(2,2-difluoroethyl)-1H-pyrazol-4-yl)pyrimidine-5-carbonitrile]", "IC50": "< 50"}, {"molecule": "FC(F)Cn1cc(-c2nc(N[C@@H]3CCC[C@H](n4cnc5cc(C(F)(F)F)cnc54)C3)ncc2C(F)(F)F)cn1", "note": "[Example 4, 4-(1-(2,2-Difluoroethyl)-1H-pyrazol-4-yl)-5-(trifluoromethyl)-N-((1R,3S)-3-(6-(trifluoromethyl)-3H-imidazo[4,5-b]pyridin-3-yl)cyclohexyl)pyrimidin-2-amine]", "IC50": "< 50"}, {"molecule": "COC(=O)c1ccc2ncn([C@H]3CCC[C@@H](Nc4ncc(C(F)(F)F)c(-c5cnn(CC(F)F)c5)n4)C3)c2n1", "note": "[Example 5, Methyl 3-((1S,3R)-3-((4-(1-(2,2-difluoroethyl)-1H-pyrazol-4-yl)-5-(trifluoromethyl)pyrimidin-2-yl)amino)cyclohexyl)-3H-imidazo[4,5-b]pyridine-5-carboxylate]", "IC50": "< 50"}, {"molecule": "COc1ccc2ncn([C@H]3CCC[C@@H](Nc4ncc(C(F)(F)F)c(-c5cnn(CC(F)F)c5)n4)C3)c2n1", "note": "[Example 6, 4-(1-(2,2-Difluoroethyl)-1H-pyrazol-4-yl)-N-((1R,3S)-3-(5-methoxy-3H-imidazo[4,5-b]pyridin-3-yl)cyclohexyl)-5-(trifluoromethyl)pyrimidin-2-amine]", "IC50": "< 50"}, {"molecule": "FC(F)Cn1cc(-c2nc(N[C@@H]3CCC[C@H](n4cnc5cnccc54)C3)ncc2C(F)(F)F)cn1", "note": "[Example 7, N-((1R,3S)-3-(1H-Imidazo[4,5-c]pyridin-1-yl)cyclohexyl)-4-(1-(2,2-difluoroethyl)-1H-pyrazol-4-yl)-5-(trifluoromethyl)pyrimidin-2-amine]", "IC50": "< 50"}, {"molecule": "Cc1ccnc2c1ncn2[C@H]1CCC[C@@H](Nc2ncc(C#N)c(-c3cnn(CC(F)F)c3)n2)C1", "note": "[Example 8, 4-(1-(2,2-Difluoroethyl)-1H-pyrazol-4-yl)-2-(((1R,3S)-3-(7-methyl-3H-imidazo[4,5-b]pyridin-3-yl)cyclohexyl)amino)pyrimidine-5-carbonitrile]", "IC50": "< 50"}]}]}
